According to ChEMBL document CHEMBL5113480, “Discovery of novel biphenyl-substituted pyridone derivatives as potent non-nucleoside reverse transcriptase inhibitors with promising oral bioavailability” (Eur J Med Chem, 2022):

What was measured:
[1] = system: Human immunodeficiency virus 1; assay: Antiviral activity against HIV-1 IIIB infected in human MT4 cells assessed as reduction in viral replication by MTT assay; format: functional, organism-based; settings: Human immunodeficiency virus 1, IIIB
[2] = system: Human immunodeficiency virus 1; assay: Antiviral activity against HIV-1 ROD infected in human MT4 cells assessed as reduction in viral replication by MTT assay; format: functional, organism-based
[3] = Cytotoxicity against human MT4 cells assessed as reduction on cell growth by MTT assay; format: toxicity, cell-based
[4] = Selectivity index, ratio of CC50 for cytotoxicity against human MT4 cells to EC50 of Anti-HIV activity against HIV-1 IIIB infected in human MT4 cells; format: toxicity, cell-based; settings: read-out: Ratio CC50/EC50
[5] = system: Human immunodeficiency virus 1; assay: Antiviral activity against HIV-1 L100I mutant infected in human MT4 cells assessed as reduction in viral replication by MTT assay; format: functional, organism-based; settings: Human immunodeficiency virus 1, L100I mutant
[6] = system: Human immunodeficiency virus 1; assay: Antiviral activity against HIV-1 K103N mutant infected in human MT4 cells assessed as reduction in viral replication by MTT assay; format: functional, organism-based; settings: Human immunodeficiency virus 1, K103N mutant
[7] = system: Human immunodeficiency virus 1; assay: Antiviral activity against HIV-1 Y181C mutant infected in human MT4 cells assessed as reduction in viral replication by MTT assay; format: functional, organism-based; settings: Human immunodeficiency virus 1, Y181C mutant
[8] = system: Human immunodeficiency virus 1; assay: Antiviral activity against HIV-1 Y188L mutant infected in human MT4 cells assessed as reduction in viral replication by MTT assay; format: functional, organism-based; settings: Human immunodeficiency virus 1, Y188L mutant
[9] = system: Human immunodeficiency virus 1; assay: Antiviral activity against HIV-1 E138K mutant infected in human MT4 cells assessed as reduction in viral replication by MTT assay; format: functional, organism-based; settings: Human immunodeficiency virus 1, E138K mutant
[10] = system: Human immunodeficiency virus 1; assay: Antiviral activity against HIV-1 F227L-V106A mutant infected in human MT4 cells assessed as reduction in viral replication by MTT assay; format: functional, organism-based; settings: Human immunodeficiency virus 1, F227L-V106A mutant
[11] = system: Human immunodeficiency virus 1; assay: Antiviral activity against HIV-1 K103N-Y181C mutant infected in human MT4 cells assessed as reduction in viral replication by MTT assay; format: functional, organism-based; settings: Human immunodeficiency virus 1, K103N-Y181C mutant
[12] = biological target: Human immunodeficiency virus type 1 reverse transcriptase (Human immunodeficiency virus 1, UniProt Q72547); assay: Inhibition of wild type HIV-1 Reverse transcriptase

| Compound | EC50 [1] [µM] | EC50 [2] [µM] | CC50 [3] [µM] | selectivity ratio [4] | EC50 [5] [µM] | EC50 [6] [µM] | EC50 [7] [µM] | EC50 [8] [µM] | EC50 [9] [µM] | EC50 [10] [µM] | EC50 [11] [µM] | IC50 [12] [µM] |
| --- | --- | --- | --- | --- | --- | --- | --- | --- | --- | --- | --- | --- |
| Cc1cc(-c2cccc(F)c2)ccc1Oc1c(C(F)(F)F)ccn(Cc2n[nH]c(=O)n2C)c1=O | 5.14 | > 35 | 26.7 | 5.2 | 3.64 | 2.59 | > 35 | > 35 | 3.99 | > 35 | > 35 | 5.44 |
| Cn1c(Cn2ccc(C(F)(F)F)c(Oc3ccc(-c4cc(F)cc(C#N)c4)cc3Cl)c2=O)n[nH]c1=O | 3.38 | > 35 | 19.3 | 5.71 | 2.41 | 3.29 | 7.14 | > 35 | 3.29 | > 35 | > 35 | 4.37 |
| Cn1c(Cn2ccc(C(F)(F)F)c(Oc3ccc(-c4ccc(F)c(C#N)c4)cc3Cl)c2=O)n[nH]c1=O | 4.53 | > 35 | 24.4 | 5.39 | 3.31 | 3.87 | > 35 | > 35 | 6.78 | > 35 | > 35 | 10.3 |
| COc1cc(-c2ccc(C#N)cc2)ccc1Oc1c(C(F)(F)F)ccn(Cc2n[nH]c(=O)n2C)c1=O | 8.02 | > 35 | 142 | 17.6 | 3.77 | 13 | 21.3 | > 35 | 19.5 | > 35 | > 35 | 24.6 |
| Cn1c(Cn2ccc(C(F)(F)F)c(Oc3c(F)cc(-c4cccc(F)c4)cc3F)c2=O)n[nH]c1=O | 5.74 | > 35 | 25.4 | 4.42 | 4.15 | 6.34 | > 35 | > 35 | 6.81 | > 35 | > 35 | 26.3 |
| Cn1c(Cn2ccc(C(F)(F)F)c(Oc3c(F)cc(-c4cccc(C#N)c4)cc3F)c2=O)n[nH]c1=O | 1.14 | > 35 | 21.2 | 18.7 | 1.85 | 2.24 | 8.64 | > 35 | 3.06 | > 35 | > 35 | 2.57 |
| Cc1cc(-c2ccc(F)c(C#N)c2)ccc1Oc1c(C(F)(F)F)ccn(Cc2n[nH]c(=O)n2C)c1=O | 1.83 | > 35 | 25 | 13.7 | 2.73 | 1.59 | 6.03 | > 35 | 2.31 | > 35 | 8.59 | 5.49 |
| Cn1c(Cn2ccc(C(F)(F)F)c(Oc3ccc(-c4cccc(C#N)c4)cc3Cl)c2=O)n[nH]c1=O | 4.07 | > 35 | 22.9 | 5.62 | 2.35 | 2.92 | > 35 | > 35 | 3.56 | > 35 | > 35 | 7.21 |
| Cc1cc(-c2cc(F)cc(C#N)c2)ccc1Oc1c(C(F)(F)F)ccn(Cc2n[nH]c(=O)n2C)c1=O | 1.33 | > 35 | 23.3 | 17.6 | 1.9 | 1.27 | 5.96 | > 35 | 1.9 | > 35 | 6.89 | 5.34 |
| COc1cc(-c2cccc(C#N)c2)ccc1Oc1c(C(F)(F)F)ccn(Cc2n[nH]c(=O)n2C)c1=O | 8.47 | > 35 | 126 | 14.8 | 5.61 | 12 | 13.4 | > 35 | 18.5 | > 35 | > 35 | 28.6 |
| Cc1cc(-c2ccc(F)cc2)ccc1Oc1c(C(F)(F)F)ccn(Cc2n[nH]c(=O)n2C)c1=O | 5.05 | > 35 | 26 | 5.15 | 3.26 | 3.36 | > 35 | > 35 | 3.94 | > 35 | > 35 | 5.4 |
| Cc1cc(-c2cccc(C#N)c2)ccc1Oc1c(C(F)(F)F)ccn(Cc2n[nH]c(=O)n2C)c1=O | 1.35 | > 35 | 27.2 | 20.2 | 1.38 | 1.04 | 4.75 | > 35 | 1.81 | > 35 | 6.69 | 4.73 |
| COc1cc(-c2ccc(F)c(C#N)c2)ccc1Oc1c(C(F)(F)F)ccn(Cc2n[nH]c(=O)n2C)c1=O | 17.9 | > 35 | 102 | 5.74 | 4.41 | 11.2 | 14.7 | > 35 | 21.8 | > 35 | > 35 | 42.5 |
| Cc1cc(-c2ccc(C#N)cc2)ccc1Oc1c(C(F)(F)F)ccn(Cc2n[nH]c(=O)n2C)c1=O | 1.54 | > 35 | 33.4 | 21.7 | 1.63 | 1.65 | 6.26 | > 35 | 2.42 | > 35 | 6.55 | 4.8 |
| COc1cc(-c2cc(F)cc(C#N)c2)ccc1Oc1c(C(F)(F)F)ccn(Cc2n[nH]c(=O)n2C)c1=O | 10.8 | > 35 | 113 | 10.4 | 7.77 | 16 | 14.2 | > 35 | 20.5 | > 35 | > 35 | 27.8 |
| Cn1c(Cn2ccc(C(F)(F)F)c(Oc3ccc(-c4ccc(C#N)cc4)cc3Cl)c2=O)n[nH]c1=O | 6.02 | > 35 | 21.5 | 3.58 | 4.55 | 6.35 | > 35 | > 35 | 6.18 | > 35 | > 35 | 6.73 |
